Values quoted from earlier work as cited in patent publication US20110229418A1, “Compositions and Methods of Treating and Preventing Lung Cancer” (priority 2010, published 2011).
Where two headings read alike, the source gives them in different places.

Columns and labels:
lung cancer cell [1] = conditions: in vitro
[2] = patients with type 2 diabetes, compared with those that did not use metformin
[3] = system: AMP activated protein kinase (AMPK) pathway
[4] = system: tobacco carcinogen-induced lung tumorigenesis; conditions: mice
[5] = long-term treatment
lung cancer cell [6] = conditions: in vivo
Lewis lung LLC1 cells = conditions: mice injected with Lewis lung LLC1 cells, orally administered

CN(C)C(=N)N=C(N)N [metformin]
lung cancer cell growth (lung cancer cell [1]): inhibited | cancer mortality [2]: lower cancer mortality | AMPK pathway activation [3]: activates the AMP activated protein kinase (AMPK) pathway | tobacco carcinogen-induced lung tumorigenesis [4]: prevents tobacco carcinogen-induced lung tumorigenesis | adverse effects [5]: few adverse effects | lung cancer cell growth (lung cancer cell [6]): inhibited | sensitization to ionizing radiation (human lung cancer cells): sensitizes human lung cancer cells to ionizing radiation | tumor growth (Lewis lung LLC1 cells; control diet): no effect on tumor growth | tumor growth (Lewis lung LLC1 cells; high-energy diet): reduce tumor growth
